Assays:
Type in all cases: in vivo, rat
[1] = test system: NBM lesioned rats; experiment: EEG in rats with unilateral AMPA lesion of Meynert nucleus basalis (NBM)
Description: Male Wistar rats (200-250 g), anaesthetised with chloral hydrate (400 mg/kg), were subjected to unilateral lesion of Meynert nucleus basalis (NBM), by intracerebral infusion of α-amino-3-hydroxy-4-isoxazolepropionic acid (AMPA) (1.3 μg/0.5 μl). The animals were divided into four groups, the first two were subjected to NBM lesion; the third was a sham-operated group, and the last was the control group. Two weeks after the lesion, the animals were implanted under general anesthesia, with cortical electrodes (n=4) onto the fronto-parietal region, so as to make it possible, 24 hours later, to record the EEG activity of freely moving animals. EEG activity was continuously monitored and recorded for 60 min by a computerised EEG Berg-Fourier apparatus. Spontaneous activity of the EEG spectrum total power (0.25-16 Hz), as well as that of preselected frequency bands, was recorded for times of 5 min and quantitized (μV).
In order to quantitize AMPA-induced neuronal loss in NBM, coronal serial sections of rat brain were prepared, then stained with toluidine blue to verify the injection site and treated, by immunohistochemical procedure, with 192LR-NGF to quantitize the neuronal loss. Said sections were analysed by a computerized system for image analysis (Axiophoy Zeiss and Vidas Kintron). Statistical analysis of the data from the morphological study was performed by ANOVA followed, if significant, by the post-hoc Tuckey-Kramer test.
In lesioned animals (n=16), with about 45% neuronal loss at the NBM level (FIG. 5), EEG synchronization accompanied with significant increase (P<0.01) in total power (0.25-16 Hz), (170.4±25.8) of EEG spectrum (μV), as well as in higher frequency bands (6-9, 9-12 and 12-16 Hz) (FIG. 7; Tab. 4), was observed. EEG activity of half the NBM lesioned animals was further recorded. After recording the baseline EEG activity, this group of animals was intraperitoneally administered with a PC-1 single dose.

[2] = test system: rats; experiment: Synergistic effect with tacrine: qEEG of neocortical activity in rats; conditions: n=7
Description: Results reported in Table 5 show the synergistic effect of the combination of tacrine with the choline derivatives of the present invention.
Vehicle: 2 ml/Kg; all drugs were administered i.p., PC-1 and PC-2 at corresponding equimolar doses (15 μmol/2 ml/kg^−1); THA (tacrine) (5 mg/kg) was administered 30 min before compounds; atropine (0.1 mg/kg) was injected 15 min before PC-1 and PC-2. The number of animals was 7 per each group. Values represent EEG power (μV/s).

[3] = test system: Wistar rats; experiment: Behavioural and EEG effects in rats at different doses
Description: Young male Wistar rats (200-260) were used in the experiments, housed in a standard temperature and humidity conditions, with food and water ad libitum.
The animals, anaesthetised with chloral hydrate (400 mg/kg) […], were stereotaxically implanted (Kopft Instruments) with cortical electrodes (n=4) onto the fronto-parietal region of the neocortex on both cerebral hemispheres, to record EEG. After surgery all animals were housed 48 h to allow a complete recovery.
48 Hours after electrode implantation, the animals, placed in a transparent box and freely moving, were connected with an electroencephalograph and the electrocortical activity was continuously monitored and recorded. After a 30 min control time, the compounds under test were intraperitoneally administered and EEG recording was continued for 90-120 min
EEG was recorded by computerised 24-channels apparatus (Vega 24, Galileo type, ESA-OTE Biomedica, Florence, Italy), while the spectrum activity was quantitatively analysed by a Berg Fourier analyser (ESA-OTE Biomedica, Florence, Italy). The total EEG power (0.25-16 Hz range) was divided into 5 variable frequency bands: δ 0.25-3 Hz, θ 3-6; α1 6-9; α2 9-12 and β12-16 Hz.
The EEG patterns and behavioral effects observed in the rat after administration of the choline derivatives and of the vehicle is reported in 5 Tab. 3. Such effects can be ascribed to the changes of EEG spectrum total power. An […] in EEG total power is related with the presence of slow frequency waves (synchronisation), whereas an […] thereof is related with the presence of rapid frequency waves (desynchronisation).

[4] = test system: Wistar rats; experiment: EEG spectral qualitative and quantitative analysis in freely moving rats after i.p. administration
Description: Young male Wistar rats (200-260) were used in the experiments, housed in a standard temperature and humidity conditions, with food and water ad libitum. […] After surgery all animals were housed 48 h to allow a complete recovery. 48 Hours after electrode implantation, the animals, placed in a transparent box and freely moving, were connected with an electroencephalograph and the electrocortical activity was continuously monitored and recorded. […] Qualitative and quantitative analysis on the electrocortical activity EEG recording was subsequently carried out. The animals were divided in 4 groups, the first group acted as the control, the second received cytidine-5′-diphosphocholine (CDP-choline), the third and fourth received PC-1 and PC-2, respectively (pivaloylcholine iodide and pivaloyleholine trimethylacetate, respectively). The control group received an equal volume of saline solution by the same procedure. […] Statistical analysis was performed by analysis of variance (ANOVA) for multiple measurements followed, if significant, by the post-hoc Tuckey-Kramer test. A comparison between groups was performed to exclude any individual variability.

[5] = NBM unilaterally lesioned rats + PC-1 (5 mg i.p.), hemisphere ipsilateral to lesion
[6] = rats i.p., PC-1/PC-2 15 μmol/2 ml/kg, THA 5 mg/kg 30 min before, atropine 0.1 mg/kg 15 min before
[7] = after i.p. administration, % ± SEM
[8] = i.p. (vol. 0.5 ml), mean ± SEM, 7 tests

CC(C)(C)C(=O)OCC[N+](C)(C)C.[I-] [PC-1, pivaloylcholine iodide]
Effect on EEG spectrum after NBM excitotoxic lesion (FIG. 7) ([1]; NBM lesioned rats (AMPA), 5 mg i.p.): restores both the normal composition of EEG spectrum and the distribution of its frequencies | Duration of the decrease in ECoG spectrum total power ([1]; NBM lesioned rats, 5 mg i.p.): about 15 min | Time to onset of alert response, EEG desynchronization and decrease in ECoG total power ([1]; NBM lesioned rats, 5 mg i.p.): ≤ 15 min | Change in 6 rhythm (0.25-3 Hz) ([1]; NBM lesioned rats, 5 mg i.p., P<0.05): significant decrease | ECoG spectrum total power, second value of printed pair ([1]; NBM lesioned rats, 5 mg i.p., presumably after PC-1): 96±20.3 | ECoG spectrum total power, first value of printed pair ([1]; NBM lesioned rats, 5 mg i.p., presumably before PC-1): 150±19.3 | EEG spectrum band 0.25-3 Hz [1, 5]: 3.4% | EEG spectrum band 3-6 Hz [1, 5]: 33.3% | EEG spectrum band 6-9 Hz [1, 5]: 23.5% | EEG spectrum band 9-12 Hz [1, 5]: 13.6% | EEG spectrum band 12-16 Hz [1, 5]: 14.6% | EEG power (qEEG of neocortical activity), 15″ [2, 6]: 68 μV/s | EEG power (qEEG of neocortical activity), 30″ [2, 6]: 120 μV/s | EEG power (qEEG of neocortical activity), 45″ [2, 6]: 127 μV/s | EEG power (qEEG of neocortical activity), 60″ [2, 6]: 115 μV/s | EEG power (qEEG of neocortical activity), 75″ [2, 6]: 129.5 μV/s | EEG power (qEEG of neocortical activity), 90″ [2, 6]: 117 μV/s | EEG power (qEEG of neocortical activity), 105″ [2, 6]: 132.5 μV/s | EEG power (qEEG of neocortical activity), 120″ [2, 6]: 18.5 μV/s | EEG power (qEEG of neocortical activity), 135″ [2, 6]: 135 μV/s | EEG effect with tacrine given 30 min before ([2]; rats, THA 5 mg/Kg i.p. 30 min before 15 μmol i.p.): long-lasting EEG desynchronization and significant decrease in EEG spectrum total power | EEG power (qEEG of neocortical activity), Baseline ([2]; rats, before i.p. treatment): 112.5 μV/s | Behaviour ([3]; 1 mg): Alert response | EEG Activity (change of EEG total power) ([3]; 1 mg): Decrease | Behaviour ([3]; 5 mg): Alert response | EEG Activity (change of EEG total power) ([3]; 5 mg): Decrease | Behaviour ([3]; 50 mg): Convulsions and death (50%) | EEG Activity (change of EEG total power) ([3]; 50 mg): Peaks | Change of slow EEG spectrum components (FIG. 3) [4]: decrease in slow components (delta and theta) of the spectrum | Duration of the decrease in EEG total power ([4]; 5 mg i.p.): 15 min | Time to onset of EEG desynchronization and significant decrease in EEG total power ([4]; 5 mg i.p.): 15 min | EEG frequency band 0.25-3 Hz [4, 7]: 4.3 ± 0.7(*) % | EEG frequency band 3-6 Hz [4, 7]: 18 ± 0.6(*) % | EEG frequency band 6-9 Hz [4, 7]: 32.5 ± 1.3% | EEG frequency band 9-12 Hz [4, 7]: 19.3 ± 0.9% | EEG frequency band 12-16 Hz [4, 7]: 13 ± 1.0% | Effect of atropine given 15 min before the compound ([4]; atropine pretreatment): antagonize the effects | EEG total power (fronto-parietal cortex), Baseline ([4]; before i.p. injection (vol. 0.5 ml), mean ± SEM, 7 tests): 120 ± 2.9 | EEG total power (fronto-parietal cortex), 15′ [4, 8]: 82 ± 3.6(*) | EEG total power (fronto-parietal cortex), 30′ [4, 8]: 128 ± 3.2 | EEG total power (fronto-parietal cortex), 45′ [4, 8]: 110 ± 2.7 | EEG total power (fronto-parietal cortex), 60′ [4, 8]: 120 ± 4.3 | EEG total power (fronto-parietal cortex), 75′ [4, 8]: 125 ± 3.5 | EEG total power (fronto-parietal cortex), 90′ [4, 8]: 127 ± 4

— patent US20030166721A1, “Choline derivative for the treatment of alzheimer's disease” (priority 2000, published 2003)
